Reference: patent US20100298141A1, “SUBSTITUTED PYRIDINE N-OXIDE HERBICIDES” (E. I. DU PONT DE NEMOURS AND COMPANY, priority 2007, published 2010)

How the values were obtained:
[1] = test system: giant foxtail; assay: Test A pre-/postemergence greenhouse test; assay type: in vivo, Setaria faberi; details: for Foxtail, Giant plant response rating: 0 to 100 scale
How it was run: (§1)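 Herbicidal effect is a visual injury score given about ten days post-treatment by comparison with untreated controls. Preemergence plots received a directed spray onto sown loam–sand soil; postemergence plants, at the one- to two-leaf stage and 2–10 cm tall, were sprayed at the same time.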

[2] = test system: velvetleaf; assay: Test A pre-/postemergence greenhouse test; assay type: in vivo, Abutilon theophrasti; details: for Velvetleaf plant response rating: 0 to 100 scale
How it was run: as §1

[3] = test system: wheat; assay: Test C pre-/postemergence test; assay type: in vivo, Triticum aestivum; details: for Wheat plant response rating: preemergence, scale 0 (no effect) to 100 (complete control)
How it was run: (§2)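 Seeds were planted and treated preemergence with test chemical in a non-phytotoxic solvent mixture containing surfactant. Postemergence applications of the same formulation went onto plants 2 to 18 cm tall (1- to 4-leaf stage). A dash marks no test result.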

[4] = test system: common ragweed; assay: Test C pre-/postemergence test; assay type: in vivo, Ambrosia elation
How it was run: as §2

[5] = test system: barnyardgrass; assay: Test C flooded paddy test; assay type: in vivo, Echinochloa crus-galli; details: Flood
How it was run: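 Under a constant 3 cm flood, test compounds went directly into the paddy water. Following 13 to 15 days of greenhouse growth, treated species and controls were compared by eye.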

[6] = test system: green foxtail; assay: Test F preemergence test; assay type: in vivo, Setaria viridis; details: scale 0 to 100
How it was run: (§3)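 Visual ratings relative to controls, taken after 14 to 21 days in a greenhouse. Test chemicals, formulated in a surfactant-containing non-phytotoxic solvent mixture, were applied preemergence to sown seeds or postemergence to sugarcane plants.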

[7] = test system: purple nutsedge; assay: Test F preemergence test; assay type: in vivo, Cyperus rotundus; details: scale 0 to 100
How it was run: as §3

[8] = test system: southern sandbur; assay: Test F preemergence test; assay type: in vivo, Cenchrus echinatus; details: scale 0 to 100
How it was run: as §3

[9] = test system: annual bluegrass; assay: Test F preemergence test; assay type: in vivo, Poa annua; details: scale 0 to 100
How it was run: as §3

[10] = test system: field bindweed; assay: Test F preemergence test; assay type: in vivo, Convolvulus arvensis; details: scale 0 to 100
How it was run: as §3

[11] = test system: common mallow; assay: Test F preemergence test; assay type: in vivo, Malva sylvestris; details: scale 0 to 100
Description: Seeds of plant species selected from bermudagrass (Cynodon dactylon), Surinam grass (Brachiaria decumbens), large crabgrass (Digitaria sanguinalis), green foxtail (Setaria viridis), goosegrass (Eleusine indica), johnsongrass (Sorghum halepense), kochia (Kochia scoparia), pitted morningglory (Ipomoea lacunosa), purple nutsedge (Cyperus rotundus), common ragweed (Ambrosia elation), mustard (Brassica nigra), guineagrass (Panicum maximum), […] (Paspalum dilatatum), barnyardgrass (Echinochloa crus-galli), southern sandbur (Cenchrus echinatus), common sowthistle (Sonchus oleraceous), prickly […] spinosa), Italian ryegrass (Lolium multiflorum), common purslane (Portulaca oleracea), broadleaf signalgrass (Brachiaria platyphylla), common groundsel (Senecio vulgaris), common chickweed (Stellaria media), Virginia dayflower (Commelina virginica), annual bluegrass (Poa annua), naked crabgrass (Digitaria nuda), […] cochinchinensis), quackgrass (Elytrigia repens), Canada horseweed (Conyza canadensis), field bindweed (Convolvulus arvensis), […] (Bidens bipinnata), common mallow (Malva sylvestris), Russian thistle (Salsola kali), and sugarcane (Saccharum officinarum) were planted and treated preemergence with test chemicals formulated in a non-phytotoxic solvent mixture which included a surfactant. At a different time, sugarcane was treated with postemergence applications of some of the test chemicals formulated in the same manner. Plants were approximately 3- to 4-leaf stage for the postemergence treatments. Treated plants and controls were maintained in a greenhouse for 14 to 21 days, after which time all species were compared to controls and visually evaluated. […] A dash (-) response means no test result.

[12] = Postemergence, 125 g ai/ha, 0 is no effect, 100 is complete control
[13] = Postemergence, 500 g ai/ha, 0 is no effect, 100 is complete control
[14] = Preemergence, 125 g ai/ha, 0 no effect, 100 complete control
[15] = Preemergence, 500 g ai/ha, 0 to 100 scale where 0 is no effect and 100 is complete control

Cn1nc(C(F)(F)F)c(CS(=O)(=O)c2cccc[n+]2[O-])c1OC(F)F [Compound 4]
Foxtail, Giant plant response rating [1, 12]: 80 | Foxtail, Giant plant response rating [1, 13]: 90 | Foxtail, Giant plant response rating [1, 14]: 100 | Plant response rating, Foxtail, Giant [1, 15]: 100 | Velvetleaf plant response rating [2, 12]: 50 | Velvetleaf plant response rating [2, 13]: 80 | Velvetleaf plant response rating [2, 14]: 50 | Plant response rating, Velvetleaf [2, 15]: 90 | Wheat plant response rating ([3]; 62 g ai/ha): 20 | Plant response rating (0 to 100), Wheat ([3]; Preemergence, 250 g ai/ha): 50 | Wheat plant response rating ([3]; 125 g ai/ha): 20 | Ragweed plant response rating ([4]; 31 g ai/ha, Preemergence, scale 0 to 100): 70 | Ragweed plant response rating ([4]; 62 g ai/ha, preemergence, scale 0 (no effect) to 100 (complete control)): 100 | Plant response rating (0 to 100), Ragweed ([4]; Preemergence, 250 g ai/ha): 100 | Ragweed plant response rating ([4]; preemergence, 125 g ai/ha, scale 0 (no effect) to 100 (complete control)): 100 | Plant response rating, Barnyardgrass ([5]; 31 g ai/ha, scale 0 to 100 (0 no effect, 100 complete control)): 0 | Plant response rating, Barnyardgrass ([5]; 62 g ai/ha, scale 0 to 100, 0 no effect, 100 complete control, 13 to 15 days): 35 | Plant response rating, Barnyardgrass ([5]; 125 g ai/ha, scale 0 to 100, 0 no effect, 100 complete control, 13 to 15 days): 85 | Plant response rating, Barnyardgrass ([5]; 250 g ai/ha, scale 0 to 100 (0 no effect, 100 complete control)): 90 | Plant response rating, Foxtail, Green ([6]; 8 g ai/ha, preemergence): 0 | Foxtail, Green plant response rating ([6]; 62 g ai/ha, Preemergence): 95 | Plant response rating, Foxtail, Green ([6]; Preemergence, 16 g ai/ha): 35 | Plant response rating, Foxtail, Green ([6]; Preemergence, 31 g ai/ha): 70 | Plant response rating, Purple Nutsedge ([7]; 8 g ai/ha, preemergence): 0 | Purple Nutsedge plant response rating ([7]; 62 g ai/ha, Preemergence): 80 | Plant response rating, Purple Nutsedge ([7]; Preemergence, 16 g ai/ha): 65 | Plant response rating, Purple Nutsedge ([7]; Preemergence, 31 g ai/ha): 65 | Plant response rating, Sandbur ([8]; 8 g ai/ha, preemergence): 25 | Plant response rating, Sandbur ([8]; 16 g ai/ha, preemergence): 90 | Sandbur plant response rating ([8]; 62 g ai/ha, Preemergence): 100 | Plant response rating, Sandbur ([8]; Preemergence, 31 g ai/ha): 100 | Plant response rating, Bluegrass ([9]; 8 g ai/ha, preemergence): 0 | Bluegrass plant response rating ([9]; 62 g ai/ha, Preemergence): 75 | Plant response rating, Bluegrass ([9]; Preemergence, 16 g ai/ha): 0 | Plant response rating, Bluegrass ([9]; Preemergence, 31 g ai/ha): 20 | Plant response rating, Field Bindweed ([10]; 8 g ai/ha, preemergence): 0 | Field Bindweed plant response rating ([10]; 62 g ai/ha, Preemergence): 0 | Plant response rating, Field Bindweed ([10]; Preemergence, 16 g ai/ha): 0 | Plant response rating, Field Bindweed ([10]; Preemergence, 31 g ai/ha): 0 | Plant response rating, Mallow ([11]; 8 g ai/ha, preemergence): 0 | Mallow plant response rating ([11]; 62 g ai/ha, Preemergence): 0 | Plant response rating, Mallow ([11]; Preemergence, 16 g ai/ha): 0 | Plant response rating, Mallow ([11]; Preemergence, 31 g ai/ha): 0
